Laboratory results as given in patent US10294202B2, “Pyrrolidinones as herbicides” (FMC Corporation, priority 2013, dated 2019).

Key:
[1] = tested on: kochia; experiment: Test A pre-/postemergence herbicide test; assay type: in vivo, Kochia scoparia
Outline: (§1)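 Greenhouse pot test with pre- and postemergence application of surfactant-containing solvent formulations. Postemergence plants were 2–10 cm, one- to two-leaf stage. Response scored visually after ~10 days, 0 (no effect) to 100 (complete control).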

[2] = tested on: ragweed; experiment: Test A pre-/postemergence herbicide test; assay type: in vivo, Ambrosia elatior
Outline: as §1

[3] = tested on: ryegrass, Italian; experiment: Test A pre-/postemergence herbicide test; assay type: in vivo, Lolium multiflorum
Outline: as §1

[4] = tested on: blackgrass; experiment: Test A postemergence herbicide test; assay type: in vivo, Alopecurus myosuroides
Outline: (§2)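 Young potted plants in a loam–sand mix, one- to two-leaf stage and 2–10 cm tall, receive the test chemical postemergence and stay in a greenhouse for approximately 10 days. Injury is then judged by eye against untreated plants, scored 0 (none) to 100 (complete control).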

[5] = tested on: galium; experiment: Test A postemergence herbicide test; assay type: in vivo, Galium aparine; settings: for Plant response rating, Galium: 125 g ai/ha; for Galium plant response rating (0 to 100 scale, 0 is no effect, 100 is complete control): 500 g ai/ha
Outline: as §2

[6] = tested on: chickweed; experiment: Test C postemergence herbicide test; assay type: in vivo, Stellaria media
Outline: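 Greenhouse pot plants at 2 to 18 cm height (1- to 4-leaf stage) received a postemergence application of formulated test chemical. Visual ratings against untreated controls were made after 13 to 15 days, on a 0 (no effect) to 100 (complete control) scale.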

[7] = tested on: rice; experiment: Test C flooded paddy test; assay type: in vivo, Oryza sativa; settings: Flood
Outline: (§3)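 2-leaf stage; flood 3 cm over soil; compound into paddy water; depth held; greenhouse 13–15 d; visual % control vs untreated (0 = none, 100 = complete); "-" = not tested.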

[8] = tested on: sedge, umbrella; experiment: Test C flooded paddy test; assay type: in vivo, Cyperus difformis; settings: Flood
Outline: as §3

[9] = tested on: barnyardgrass; experiment: Test C flooded paddy test; assay type: in vivo, Echinochloa crus-galli; settings: Flood
Outline: as §3

[10] = 125 g ai/ha, visual rating, 0 to 100 scale, 0 no effect, 100 complete control, approximately 10 days, preemergence
[11] = Postemergence, 125 g ai/ha, 0 to 100 scale, 0 is no effect, 100 is complete control
[12] = preemergence, 500 g ai/ha, 0 to 100 scale, 0 is no effect and 100 is complete control
[13] = 125 g ai/ha, 0 to 100 scale, 0 is no effect, 100 is complete control
[14] = 0 to 100 scale, 0 is no effect, 100 is complete control
[15] = 31 g ai/ha, scale 0 to 100 (0 no effect, 100 complete control)
[16] = 62 g ai/ha, scale 0 (no effect) to 100 (complete control)
[17] = 125 g ai/ha, scale 0 to 100 (0 no effect, 100 complete control)
[18] = 250 g ai/ha, scale 0 to 100 (0 no effect, 100 complete control)
[19] = 125 g ai/ha, scale of 0 to 100 where 0 is no effect and 100 is complete control, 13 to 15 days
[20] = 250 g ai/ha, scale of 0 to 100 where 0 is no effect and 100 is complete control, 13 to 15 days
[21] = 31 g ai/ha, scale of 0 to 100 where 0 is no effect and 100 is complete control, 13 to 15 days
[22] = 62 g ai/ha, scale of 0 to 100 where 0 is no effect and 100 is complete control, 13 to 15 days
[23] = Postemergence, 125 g ai/ha, visual rating on 0 to 100 scale (0 no effect, 100 complete control), approx. 10 days
[24] = Preemergence, 125 g ai/ha, 0 to 100 scale where 0 is no effect and 100 is complete control
[25] = Preemergence, 500 g ai/ha, visual rating on 0 to 100 scale (0 no effect, 100 complete control)

Structure (SMILES) | Plant response rating, Kochia [1, 10] | Plant response rating, Kochia [1, 11] | Kochia plant response rating (0 to 100 scale, 0 is no effect, 100 is complete control) ([1]; Postemergence, 500 g ai/ha) | Plant response rating, Kochia [1, 12] | Plant response rating, Ragweed [2, 10] | Plant response rating, Ragweed [2, 11] | Ragweed plant response rating (0 to 100 scale, 0 is no effect, 100 is complete control) ([2]; Postemergence, 500 g ai/ha) | Plant response rating, Ragweed [2, 12] | Plant response rating, Ryegrass, Italian [3, 10] | Plant response rating, Ryegrass, Italian [3, 11] | Plant response rating, Chickweed [6, 15] | Plant response rating, Chickweed [6, 16] | Plant response rating, Chickweed [6, 17] | Plant response rating, Chickweed [6, 18] | Plant response rating, Rice [7, 19] | Plant response rating, Rice [7, 20] | Plant response rating, Sedge, Umbrella [8, 19] | Plant response rating, Sedge, Umbrella [8, 20] | Plant response rating, Barnyardgrass [9, 19] | Plant response rating, Barnyardgrass [9, 20] | also measured
O=C1NC[C@H](c2cccc(C(F)(F)F)c2)[C@H]1C(=O)Nc1cccc(F)c1F [Compound 206] | 70 | 70 | 70 | 80 | 60 | 0 | 50 | 70 | 40 | 50 | 85 | 60 | 85 | 85 | 0 | 0 | 0 | 0 | 35 | 60 | Ryegrass, Italian plant response rating (0 to 100 scale, 0 is no effect, 100 is complete control) ([3]; Postemergence, 500 g ai/ha): 60; Plant response rating, Ryegrass, Italian [3, 12]: 80; Plant response rating, Blackgrass [4, 13]: 70; Blackgrass plant response rating (0 to 100 scale, 0 is no effect, 100 is complete control) ([4]; 500 g ai/ha): 80; Plant response rating, Galium [5, 14]: 70; Galium plant response rating (0 to 100 scale, 0 is no effect, 100 is complete control) [5]: 80; Plant response rating, Rice ([7]; 500 g ai/ha, scale 0 to 100): 15; Plant response rating, Rice ([7]; 1000 g ai/ha, scale 0 to 100): 15; Plant response rating, Sedge, Umbrella ([8]; 500 g ai/ha, scale 0 to 100): 0; Plant response rating, Sedge, Umbrella ([8]; 1000 g ai/ha, scale 0 to 100): 0; Plant response rating, Barnyardgrass ([9]; 500 g ai/ha, scale 0 to 100): 75; Plant response rating, Barnyardgrass ([9]; 1000 g ai/ha, scale 0 to 100): 85
O=C1NCC(c2cccc(OC(F)F)c2)C1C(=O)Nc1cccc(F)c1F (centres unmarked) [Compound 224] | 80 | 80 | 90 | 90 | 90 | 40 | 60 | 90 | 60 | 50 | 70 | 70 | 70 | 85 | 0 | 20 | 0 | 0 | 40 | 60 | Ryegrass, Italian plant response rating (0 to 100 scale, 0 is no effect, 100 is complete control) ([3]; Postemergence, 500 g ai/ha): 60; Plant response rating, Ryegrass, Italian [3, 12]: 70; Plant response rating, Blackgrass [4, 13]: 60; Blackgrass plant response rating (0 to 100 scale, 0 is no effect, 100 is complete control) ([4]; 500 g ai/ha): 70; Plant response rating, Galium [5, 14]: 70; Galium plant response rating (0 to 100 scale, 0 is no effect, 100 is complete control) [5]: 70; Plant response rating, Rice [7, 21]: 0; Plant response rating, Rice [7, 22]: 0; Plant response rating, Sedge, Umbrella [8, 21]: 0; Plant response rating, Sedge, Umbrella [8, 22]: 0; Plant response rating, Barnyardgrass [9, 21]: 0; Plant response rating, Barnyardgrass [9, 22]: 20
O=C1NCC(c2ccc(F)c(F)c2)C1C(=O)Nc1ccc(F)c(F)c1F (centres unmarked) [Compound 346] | – | – | – | – | – | – | – | – | – | – | 40 | 65 | 40 | 85 | 0 | 0 | 0 | 0 | 30 | 45 | Plant response rating, Kochia [1, 23]: 0; Plant response rating, Kochia [1, 24]: 0; Kochia plant response rating [1, 25]: 80; Plant response rating, Ragweed [2, 23]: 0; Plant response rating, Ragweed [2, 24]: 0; Ragweed plant response rating [2, 25]: 0; Plant response rating, Ryegrass, Italian [3, 23]: 20; Plant response rating, Ryegrass, Italian [3, 24]: 0; Ryegrass, Italian plant response rating [3, 25]: 30; Plant response rating, Blackgrass ([4]; 125 g ai/ha, visual rating on 0 to 100 scale (0 no effect, 100 complete control), approx. 10 days): 20; Plant response rating, Blackgrass ([4]; 500 g ai/ha, 0 to 100 scale (0 no effect, 100 complete control)): 50; Plant response rating, Galium ([5]; visual rating on 0 to 100 scale (0 no effect, 100 complete control), approx. 10 days): 30; Plant response rating, Rice ([7]; 500 g ai/ha, scale 0 to 100): 0; Plant response rating, Rice ([7]; 1000 g ai/ha, scale 0 to 100): 0; Plant response rating, Sedge, Umbrella ([8]; 500 g ai/ha, scale 0 to 100): 0; Plant response rating, Sedge, Umbrella ([8]; 1000 g ai/ha, scale 0 to 100): 0; Plant response rating, Barnyardgrass ([9]; 500 g ai/ha, scale 0 to 100): 65; Plant response rating, Barnyardgrass ([9]; 1000 g ai/ha, scale 0 to 100): 70
